The values that follow come from paper PMC6980389 (Chembiochem : a European journal of chemical biology, 2018).

For assay [1], the system named is U937 leukemia cells. The assay can be described thus: U937 cell attachment at 60 h, alone or with 10 nM PMA. Type of assay: cell-based. As to conditions: ligand alone.
The test system of a further assay is Toledo cells. Kind of assay: Growth of Toledo cells. Type of assay: cell-based. As to conditions: 72 h; for IC50: read-out: IC50, growth inhibition of Toledo cells.
A further assay addresses PKCδ (Homo sapiens, UniProt Q05655). Kind of assay: Downregulation of PKCδ in U937 cells. As to conditions: 24 h. It is filed as cell-based.
Assay [2] deals with U937 leukemia cells. As to conditions: proliferation and attachment assays; ref 12b-e; cited from earlier work.
The target in another assay is mCherry PKCδ (Homo sapiens, UniProt Q05655). Kind of assay: Translocation of mCherry-tagged PKCδ in LNCaP cells. Type of assay: cell-based. As to conditions: 1 μM ligand.
Chain of mCherry PKCδ (Q05655 whole entry): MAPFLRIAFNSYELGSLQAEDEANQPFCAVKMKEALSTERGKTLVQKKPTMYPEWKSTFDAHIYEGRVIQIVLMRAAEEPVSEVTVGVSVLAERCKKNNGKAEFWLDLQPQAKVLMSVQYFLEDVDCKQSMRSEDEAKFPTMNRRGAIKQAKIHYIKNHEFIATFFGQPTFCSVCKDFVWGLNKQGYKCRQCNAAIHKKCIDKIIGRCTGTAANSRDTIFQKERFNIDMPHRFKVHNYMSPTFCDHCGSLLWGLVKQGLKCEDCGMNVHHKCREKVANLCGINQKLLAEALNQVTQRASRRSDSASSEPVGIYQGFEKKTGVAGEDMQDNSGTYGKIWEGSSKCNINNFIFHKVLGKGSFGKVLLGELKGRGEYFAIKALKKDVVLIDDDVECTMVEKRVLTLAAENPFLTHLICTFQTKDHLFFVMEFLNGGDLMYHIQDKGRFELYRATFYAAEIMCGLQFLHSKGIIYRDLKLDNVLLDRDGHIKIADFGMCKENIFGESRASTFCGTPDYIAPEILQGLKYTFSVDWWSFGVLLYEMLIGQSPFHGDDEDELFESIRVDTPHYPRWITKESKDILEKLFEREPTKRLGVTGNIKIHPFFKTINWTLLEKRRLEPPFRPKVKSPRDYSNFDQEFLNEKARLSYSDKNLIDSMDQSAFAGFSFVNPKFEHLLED
Another assay has as its target PKCβII (Homo sapiens, UniProt P05771). The assay can be described thus: Downregulation of PKCβII in U937 cells. Type of assay: cell-based. As to conditions: 24 h.

Broadly, the IC50 is the point on the concentration scale where inhibition reaches its midpoint.

Like-named read-outs stand apart in the source and are kept apart here.

Chain of PKCβII (P05771 1-673 isoform P05771-2): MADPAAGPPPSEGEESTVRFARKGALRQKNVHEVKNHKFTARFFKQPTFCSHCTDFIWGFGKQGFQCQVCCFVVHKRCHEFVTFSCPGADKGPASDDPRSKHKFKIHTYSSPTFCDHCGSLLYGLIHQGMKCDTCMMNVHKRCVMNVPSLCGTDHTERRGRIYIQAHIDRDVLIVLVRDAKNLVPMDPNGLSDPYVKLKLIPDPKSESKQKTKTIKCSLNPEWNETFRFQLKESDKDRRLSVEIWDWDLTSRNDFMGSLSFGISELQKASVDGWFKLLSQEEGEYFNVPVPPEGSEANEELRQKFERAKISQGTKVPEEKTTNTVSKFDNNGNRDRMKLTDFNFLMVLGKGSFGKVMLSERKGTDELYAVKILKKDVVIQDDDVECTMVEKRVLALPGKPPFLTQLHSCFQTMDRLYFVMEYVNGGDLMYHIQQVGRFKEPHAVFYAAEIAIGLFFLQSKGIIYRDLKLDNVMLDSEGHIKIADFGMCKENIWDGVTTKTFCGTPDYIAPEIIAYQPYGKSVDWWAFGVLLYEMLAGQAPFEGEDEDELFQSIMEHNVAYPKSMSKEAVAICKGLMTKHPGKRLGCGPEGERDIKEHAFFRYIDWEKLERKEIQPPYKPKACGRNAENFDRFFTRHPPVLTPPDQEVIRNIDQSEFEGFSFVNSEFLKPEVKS
Chain of PKCδ (Q05655 whole entry): as the sequence (Q05655 whole entry) above

In the case of `C=C1C[C@@H]2C[C@@H]3CC(=C)C[C@H](/C=C/C(C)(C)[C@]4(O)O[C@@H](C/C(=C\C(=O)OC)[C@@H]4OC(=O)/C=C/C=C/CCC)C[C@H]([C@@H](C)O)OC(=O)C[C@H](O)C[C@H](C1)O2)O3` [Merle 23], the “Effect on attachment of U937 cells” value in the assay on U937 leukemia cells [1] is given as “induced attachment”. The concentration for half-maximal inhibition (IC50) in the assay with Toledo cells stood at 0.33 ± 0.11 nM. For the same molecule, the “Downregulation of PKCδ” value at PKCδ was “less potent than Merle 45 for downregulation but again showed no protection of PKCδ downregulation at high doses”. Moreover, the “Pattern of biological activity in U937 cells (PMA-like or bryostatin-like)” value (“Pattern of biological activity” below) with U937 leukemia cells [2] is given as “largely PMA-like”.

In the case of `CCCCCCCCCCCCCC(=O)O[C@@H]1[C@@H](C)[C@@]2(O)[C@@H](C=C(CO)C[C@]3(O)C(=O)C(C)=C[C@@H]23)[C@@H]2C(C)(C)[C@]12OC(C)=O` [PMA, phorbol 12-myristate 13-acetate], in the assay with U937 leukemia cells [1], the “Effect on attachment of U937 cells” value was “induced attachment”. Besides, in the assay with Toledo cells, the “Effect on Toledo cell growth” value is on record as “inhibited Toledo cell growth”. In addition, in the assay on Toledo cells (Homo sapiens, Toledo), the IC50 worked out at 0.57 ± 0.27 nM. Further, on mCherry PKCδ, the “Translocation of PKCδ” value was “characteristic translocation of PKCδ to the plasma and nuclear membranes, as well as to internal membranes”. Further, the “Downregulation of PKCβII” value at PKCβII is given as “downregulated PKCβII at 24 h”.

Take `CCC/C=C/C=C/C(=O)O[C@H]1/C(=C/C(=O)OC)C[C@H]2C[C@H]([C@@H](C)O)OC(=O)C[C@H](O)C[C@@H]3C[C@H](OC(C)=O)C(C)(C)[C@](O)(C[C@@H]4C/C(=C/C(=O)OC)C[C@H](/C=C/C(C)(C)[C@]1(O)O2)O4)O3` [bryostatin 1]: in the assay on U937 leukemia cells [1], the “Effect on attachment of U937 cells” value is “did not inhibit proliferation (Figure 1) or induce attachment”. In addition, in the assay with Toledo cells, the “Effect on Toledo cell growth” value is “inhibited Toledo cell growth”. The IC50 in the assay on Toledo cells (Homo sapiens, Toledo) was 0.091 ± 0.026 nM.

Turning to `C=C1C[C@H]2C[C@H]3C[C@@H](OC(C)=O)C[C@@H](C[C@@H](O)CC(=O)O[C@@H]([C@@H](C)O)C[C@@H]4C/C(=C\C(=O)OC)[C@H](OC(=O)CCCCCCC)[C@@](O)(O4)C(C)(C)/C=C/[C@@H](C1)O2)O3` [Merle 27], the “Pattern of biological activity” value in the assay on U937 leukemia cells [2] is “PMA-like”.

Turning to `C=C1C[C@H]2CC3(O)O[C@H](C[C@@H](O)CC(=O)O[C@@H]([C@@H](C)O)C[C@@H]4C/C(=C\C(=O)OC)[C@H](OC(=O)/C=C/C=C/CCC)[C@@](O)(O4)C(C)(C)/C=C/[C@@H](C1)O2)C[C@H](OC(C)=O)C3(C)C` [Merle 28], the “Effect on attachment of U937 cells” value in the assay with U937 leukemia cells [1] is “did not inhibit proliferation (Figure 1) or induce attachment”. In addition, in the assay on Toledo cells, the concentration for half-maximal inhibition (IC50) amounted to 0.111 ± 0.009 nM. The “Pattern of biological activity” value in the assay with U937 leukemia cells [2] is “bryostatin-like”.
